Reference: ChEMBL document CHEMBL4627305, “3,3-Difluoro-3,4,5,6-tetrahydropyridin-2-amines: Potent and permeable BACE-1 inhibitors” (Bioorg Med Chem Lett, 2020)

Key:
Cytochrome P450 2D6 = Cytochrome P450 2D6 (Homo sapiens, UniProt P10635); assay: Inhibition of CYP2D6 (unknown origin); type: ADME
[1] = Metabolic stability in dog liver microsomes assessed as intrinsic clearance; type: ADME, Canis lupus familiaris, Microsome; conditions: read-out: CLH
Homo sapiens = species: Homo sapiens; assay: Selectivity index, ratio of IC50 for BACE2 (unknown origin) to IC50 for BACE1 (unknown origin)
Beta-secretase 2 = biological target: T1, Beta-secretase 2 (Homo sapiens, UniProt Q9Y5Z0); assay: Inhibition of BACE2 (unknown origin)
T1 sequence (Q9Y5Z0 whole entry): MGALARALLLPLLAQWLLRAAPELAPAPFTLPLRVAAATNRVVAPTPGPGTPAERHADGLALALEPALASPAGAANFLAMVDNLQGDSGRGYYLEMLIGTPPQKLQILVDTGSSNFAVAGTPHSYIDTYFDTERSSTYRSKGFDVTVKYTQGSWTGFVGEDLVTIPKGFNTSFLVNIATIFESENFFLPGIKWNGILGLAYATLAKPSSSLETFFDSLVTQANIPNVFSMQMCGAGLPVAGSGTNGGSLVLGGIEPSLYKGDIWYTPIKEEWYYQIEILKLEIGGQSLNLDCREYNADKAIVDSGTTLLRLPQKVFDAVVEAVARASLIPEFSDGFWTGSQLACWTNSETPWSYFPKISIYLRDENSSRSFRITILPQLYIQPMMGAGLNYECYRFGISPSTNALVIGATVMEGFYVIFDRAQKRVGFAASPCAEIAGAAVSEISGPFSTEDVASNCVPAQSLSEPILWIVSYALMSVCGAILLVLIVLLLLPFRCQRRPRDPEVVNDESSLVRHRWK

[2] = Efflux ratio of apparent permeability across basolateral to apical over apical to basolateral side in MDCK cells; type: ADME, cell-based, Canis lupus familiaris; conditions: dog
[3] = Dissociation constant, pKa of the compound; type: physicochemical
Beta-secretase 1 [4] = biological target: T2, Beta-secretase 1 (Homo sapiens, UniProt P56817); assay: Inhibition of BACE1 (unknown origin) assessed as reduction in Abeta42 level by cell based assay
T2 sequence (P56817 whole entry): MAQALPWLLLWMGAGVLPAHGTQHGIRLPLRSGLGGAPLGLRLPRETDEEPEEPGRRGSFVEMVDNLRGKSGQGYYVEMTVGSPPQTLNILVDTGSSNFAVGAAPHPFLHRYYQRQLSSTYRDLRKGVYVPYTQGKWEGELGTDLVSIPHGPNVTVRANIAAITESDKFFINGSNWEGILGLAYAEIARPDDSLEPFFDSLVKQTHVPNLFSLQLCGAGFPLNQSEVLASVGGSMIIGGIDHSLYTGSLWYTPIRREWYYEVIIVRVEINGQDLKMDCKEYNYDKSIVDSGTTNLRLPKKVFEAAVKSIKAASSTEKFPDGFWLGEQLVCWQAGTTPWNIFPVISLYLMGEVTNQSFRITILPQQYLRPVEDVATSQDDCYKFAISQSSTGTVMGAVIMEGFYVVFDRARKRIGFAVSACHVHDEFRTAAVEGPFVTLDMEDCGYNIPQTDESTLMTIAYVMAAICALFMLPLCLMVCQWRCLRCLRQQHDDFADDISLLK

Beta-secretase 1 [5] = biological target: T2, Beta-secretase 1; assay: Inhibition of BACE1 (unknown origin)
[6] = biological target: Voltage-gated inwardly rectifying potassium channel KCNH2 (Homo sapiens, UniProt Q12809); assay: Inhibition of human ERG
Voltage-gated inwardly rectifying potassium channel KCNH2, sequence (Q12809 whole entry): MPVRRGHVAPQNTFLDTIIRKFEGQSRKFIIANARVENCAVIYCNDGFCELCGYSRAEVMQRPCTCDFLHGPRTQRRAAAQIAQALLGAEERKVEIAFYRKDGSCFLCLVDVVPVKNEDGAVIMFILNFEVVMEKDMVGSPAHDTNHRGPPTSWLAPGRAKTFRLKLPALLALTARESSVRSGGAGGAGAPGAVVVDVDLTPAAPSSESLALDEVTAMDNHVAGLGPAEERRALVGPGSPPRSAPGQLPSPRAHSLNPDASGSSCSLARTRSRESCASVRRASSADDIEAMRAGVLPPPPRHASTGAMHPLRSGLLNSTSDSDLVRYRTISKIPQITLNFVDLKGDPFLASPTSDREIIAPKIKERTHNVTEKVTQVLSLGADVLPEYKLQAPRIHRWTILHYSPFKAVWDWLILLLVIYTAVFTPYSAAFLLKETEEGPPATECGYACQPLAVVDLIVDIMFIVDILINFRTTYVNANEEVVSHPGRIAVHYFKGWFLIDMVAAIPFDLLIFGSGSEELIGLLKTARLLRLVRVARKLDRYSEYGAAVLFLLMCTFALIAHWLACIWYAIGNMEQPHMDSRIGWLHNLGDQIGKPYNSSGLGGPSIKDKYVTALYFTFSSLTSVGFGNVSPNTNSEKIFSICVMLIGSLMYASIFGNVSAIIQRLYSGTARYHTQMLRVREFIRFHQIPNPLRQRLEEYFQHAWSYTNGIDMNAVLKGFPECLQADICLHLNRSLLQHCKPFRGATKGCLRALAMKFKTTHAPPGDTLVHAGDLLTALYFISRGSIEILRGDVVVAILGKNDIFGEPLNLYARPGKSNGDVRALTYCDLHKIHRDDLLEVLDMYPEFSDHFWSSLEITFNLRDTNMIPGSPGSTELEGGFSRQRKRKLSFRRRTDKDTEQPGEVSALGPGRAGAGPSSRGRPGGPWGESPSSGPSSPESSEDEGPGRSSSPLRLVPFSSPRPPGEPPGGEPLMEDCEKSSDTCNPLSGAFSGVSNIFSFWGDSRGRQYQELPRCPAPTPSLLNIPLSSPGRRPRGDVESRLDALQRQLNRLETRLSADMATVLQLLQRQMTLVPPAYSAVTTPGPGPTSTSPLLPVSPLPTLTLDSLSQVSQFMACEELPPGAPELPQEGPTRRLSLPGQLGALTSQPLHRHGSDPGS

[7] = Metabolic stability in human liver microsomes assessed as intrinsic clearance; type: ADME, Microsome; conditions: read-out: CLH

Cytochrome P450 2D6, sequence (P10635 whole entry): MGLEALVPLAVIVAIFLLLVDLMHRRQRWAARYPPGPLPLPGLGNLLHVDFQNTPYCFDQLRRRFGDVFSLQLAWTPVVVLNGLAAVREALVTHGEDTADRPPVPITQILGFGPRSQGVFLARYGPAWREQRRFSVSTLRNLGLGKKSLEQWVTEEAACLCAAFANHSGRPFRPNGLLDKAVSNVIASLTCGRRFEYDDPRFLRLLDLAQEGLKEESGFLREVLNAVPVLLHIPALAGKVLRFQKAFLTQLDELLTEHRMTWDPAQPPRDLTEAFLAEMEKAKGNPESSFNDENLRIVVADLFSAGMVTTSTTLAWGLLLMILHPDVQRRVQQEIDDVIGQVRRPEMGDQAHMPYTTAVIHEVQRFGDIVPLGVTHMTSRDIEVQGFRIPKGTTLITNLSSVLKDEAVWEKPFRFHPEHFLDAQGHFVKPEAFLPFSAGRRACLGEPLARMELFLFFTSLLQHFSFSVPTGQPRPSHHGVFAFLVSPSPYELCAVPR

Row | IC50 (Cytochrome P450 2D6) [nM] | microsomal CLint [1] [µL/min/mg] | Ratio IC50 (Homo sapiens) | IC50 (Beta-secretase 2) [nM] | efflux ratio [2] | pKa [3] | IC50 (Beta-secretase 1 [4]) [nM] | IC50 (Beta-secretase 1 [5]) [nM] | microsomal CLint [7] [µL/min/mg] | Compound | IC50 [6] [nM]
1 | > 10000 | 11.8 | 13.5 | 1070 | 8.4 | 6.7 | 170 | 79.4 | 35.3 | NC1=N[C@@]2(c3cc(NC(=O)c4cnc(OCF)cn4)ccc3F)CCOC[C@H]2CC1(F)F (racemic) | > 10000
2 | – | < 7.7 | – | 138 | – | 6.3 | 93.3 | 8.9 | < 7.7 | NC1=N[C@](CF)(c2cc(NC(=O)c3cnc(OCF)cn3)ccc2F)CCC1(F)F | –
3 | 1000 | 10.2 | 11 | 126 | 2.1 | 7.6 | 16.2 | 11.5 | 10.1 | C[C@@]1(c2cc(NC(=O)c3cnc(OCF)cn3)ccc2F)CCC(F)(F)C(N)=N1 | > 10000

The next lines start with the compound.

Row | Compound | IC50 (Cytochrome P450 2D6) [nM] | microsomal CLint [1] [µL/min/mg] | Ratio IC50 (Homo sapiens) | IC50 (Beta-secretase 2) [nM] | efflux ratio [2] | pKa [3] | IC50 (Beta-secretase 1 [4]) [nM] | IC50 (Beta-secretase 1 [5]) [nM] | microsomal CLint [7] [µL/min/mg] | IC50 [6] [nM]
4 | C[C@H]1C[C@H]2CC(F)(F)C(N)=N[C@@]2(c2cc(NC(=O)c3cnc(OCF)cn3)ccc2F)CO1 | > 10000 | 18.6 | 4.5 | 6.8 | 5 | 6.6 | 3.5 | 1.5 | 119 | > 10000
5 | NC1=N[C@@]2(c3cc(NC(=O)c4cnc(OCF)cn4)ccc3F)CO[C@@H](CF)C[C@H]2CC1(F)F | > 10000 | < 7.7 | 3.6 | 8.9 | 12 | 6.4 | 4.8 | 2.5 | 24.9 | > 10000
6 | NC1=N[C@@]2(c3cc(NC(=O)c4cnc(OCF)cn4)ccc3F)COCC[C@H]2CC1(F)F (racemic) | > 10000 | 15.5 | 3 | 10.2 | 4.7 | 6.6 | 7.1 | 3.5 | 46.2 | > 10000
